# Reference: patent US20240069010A1, “TISSUE ORGANOID BIOPRINTING AND HIGH-THROUGHPUT SCREENING METHODOLOGY” (priority 2020, published 2024)
# Columns and labels:
# BT-474 organoids = experiment: HSLCI mass tracking of bioprinted organoids in drug screening; assay type: cell-based; details: for Organoid Behavior (%) Lost Mass: mass loss >10%; for Organoid Behavior (%) Stable: mass change <10%; for Organoid Behavior (%) Gained Mass: mass increase >10%
# Excerpt: (§1) Cells were bioprinted using a CELLINK BioX with a Temperature-Controlled Printhead. Gcode files were written to print the desired single-layer geometry. We wrote standardized blocks of Gcode encode the print path for the repeated geometries. MATLAB (MathWorks, Inc.) was used to integrate these standardized blocks into full Gcode files with the defined coordinates for each well. We used 8-well plates when printing the larger constructs as the depth of the well in a standard 24-well plate prohibited the use of 0.5″ length needles. Large rings were necessary to deposit a sufficient number of cells for RNA-Seq and IHC. Four rings with a diameter of 14.5 mm were printed for RNA sequencing (approximately 200,000 cells total), while four sets of concentric 14.5 mm, 12.5 mm, and 10.5 mm diameter rings were used for IHC analysis (approximately 500,000 cells total). We printed mini-squares with side length 3.9 mm for drug screening and HSLCI imaging. The mini-squares were inscribed within the circular well with sides parallel to the sides of the well plate. The open center of the constructs facilitates automatic manipulation with fluid handling equipment while the sides of the square are positioned to maximize the number of organoids imaged by HSLCI. The bioprinting process utilized the same material deposited for manually seeded organoids. A single cell suspension, aggregates or clusters in a 3:4 mixture of MammoCult™ and Matrigel® was prepared on ice. After vortexing briefly to homogenize, the mixture was transferred into a 3 mL syringe by removing the plunger and capping the opposite end. Once the plunger was replaced, the syringe was inverted, and bubbles were forced out of the tip. The material was then transferred to a room temperature 3 mL bioprinter cartridge (CELLINK) by connecting the syringe and cartridge with a double-sided female Luer lock adapter (CELLINK). Any air bubbles in the syringe were removed and the loaded cartridge was incubated in a rotating incubator (Enviro-Genie, Scientific Industries) for 30 minutes at the print temperature.
# (§2) During the incubation period, the printer was sterilized with the built-in UV irradiation function and the printhead was set to the print temperature. […] The well masks were autoclaved prior to use. The masks were inserted into the well plate and pressed in contact with the glass surface. Rubber bands were used to hold the masks in place and ensure conformal contact was maintained throughout the plasma treatment. The well plates were treated with oxygen plasma in a PE-25 (Plasma Etch) for 30-90 seconds, 15 minutes prior to bioprinting. After plasma treatment, the well plate was placed in the bioprinter and Automatic Bed Levelling (ABL) was performed.
# (§3) Once the incubation period ended, we attached a 0.5″ 25-gauge needle and loaded the cartridge into the pre-cooled printhead. We primed the needle by extruding a small volume of material at 15 kPa prior to calibrating the printer. Just before printing, we cleared the needle of the gelled material by extruding a small volume using 40 kPa prior to starting the print. To create constructs of the appropriate thicknesses, prints in 8-well plates were extruded at 15 kPa while prints in 96-well plates were extruded at 12-15 kPa. […] After printing, the constructs were incubated at 37° C. for at least 30 minutes to solidify the matrix and 100 μL of MammoCult™ medium was then added.
# (§4) The HSLCI platform was installed inside a standard cell culture incubator. For all growth kinetics studies and drug screening, organoids were imaged in 96-well glass-bottom plates (Cellvis P96-1.5H-N) using a 40× objective (Nikon, NA 0.75). Organoids were seeded as single-cell suspensions in a 3:4 mixture of MammoCult™ and Matrigel® as described above and were grown at 37° C. and 5% CO2 in MammoCult™ medium supplemented with 1% antibiotic-antimycotic (Gibco 15240-062).
# MCF-7 organoids = experiment: as above; assay type: cell-based; details: for Organoid Behavior (%) Stable / Organoid Behavior (%) Gained Mass / Organoid Behavior (%) Lost Mass: MCF-7 organoids; for Organoid Behavior (%) Stable: mass change <10%; for Organoid Behavior (%) Gained Mass: mass increase >10%; for Organoid Behavior (%) Lost Mass: mass loss >10%
# Excerpt: as §1, §2, §3, §4
# [1] = in vivo; cited from earlier work
smiles,measurement,setting,value
"CS(=O)(=O)CCNCc1ccc(-c2ccc3ncnc(Nc4ccc(OCc5cccc(F)c5)c(Cl)c4)c3c2)o1 [Lapatinib, lapatinib]","Mean mass of BT-474 organoids, Mean mass ± SD","BT-474 organoids; 0.1 μM, 6 hours of treatment",1.84 ± 1.21 ng
same,"Mean mass of BT-474 organoids, Mean mass ± SD","BT-474 organoids; 0.1 μM, 48 hours of treatment",2.33 ± 1.58 ng
same,"Mean mass of BT-474 organoids, Mean mass ± SD","BT-474 organoids; 1 μM, 6 hours of treatment",1.58 ± 0.78 ng
same,"Mean mass of BT-474 organoids, Mean mass ± SD","BT-474 organoids; 1 μM, 48 hours of treatment",1.48 ± 0.66 ng
same,"Mean mass of BT-474 organoids, Mean mass ± SD","BT-474 organoids; 10 μM, 6 hours of treatment",1.74 ± 0.88 ng
same,"Mean mass of BT-474 organoids, Mean mass ± SD","BT-474 organoids; 10 μM, 48 hours of treatment",1.42 ± 0.75 ng
same,"Mean mass of BT-474 organoids, Mean mass ± SD","BT-474 organoids; 50 μM, 6 hours of treatment",1.58 ± 0.70 ng
same,"Mean mass of BT-474 organoids, Mean mass ± SD","BT-474 organoids; 50 μM, 48 hours of treatment",0.92 ± 0.48 ng
same,Organoid Behavior (%) Lost Mass,"BT-474 organoids; BT-474 organoids, 0.1 μM, 12 h",3.1%
same,Organoid Behavior (%) Stable,"BT-474 organoids; BT-474 organoids, 0.1 μM, 24 h",45.6%
same,Organoid Behavior (%) Gained Mass,"BT-474 organoids; BT-474 organoids, 0.1 μM, 24 h",49.1%
same,Organoid Behavior (%) Lost Mass,"BT-474 organoids; BT-474 organoids, 0.1 μM, 24 h",5.3%
same,Organoid Behavior (%) Stable,"BT-474 organoids; BT-474 organoids, 0.1 μM, 48 h",25.8%
same,Organoid Behavior (%) Gained Mass,"BT-474 organoids; BT-474 organoids, 0.1 μM, 48 h",67.7%
same,Organoid Behavior (%) Lost Mass,"BT-474 organoids; BT-474 organoids, 0.1 μM, 48 h",6.5%
same,Organoid Behavior (%) Lost Mass,"BT-474 organoids; BT-474 organoids, 1 μM, 12 h",7.4%
same,Organoid Behavior (%) Stable,"BT-474 organoids; BT-474 organoids, 1 μM, 24 h",54.2%
same,Organoid Behavior (%) Gained Mass,"BT-474 organoids; BT-474 organoids, 1 μM, 24 h",20.3%
same,Organoid Behavior (%) Lost Mass,"BT-474 organoids; BT-474 organoids, 1 μM, 24 h",25.4%
same,Organoid Behavior (%) Stable,"BT-474 organoids; BT-474 organoids, 1 μM, 48 h",50.0%
same,Organoid Behavior (%) Gained Mass,"BT-474 organoids; BT-474 organoids, 1 μM, 48 h",27.5%
same,Organoid Behavior (%) Lost Mass,"BT-474 organoids; BT-474 organoids, 1 μM, 48 h",22.5%
same,Organoid Behavior (%) Gained Mass,"BT-474 organoids; BT-474 organoids, 10 μM, 12 h",19.6%
same,Organoid Behavior (%) Lost Mass,"BT-474 organoids; BT-474 organoids, 10 μM, 12 h",7.1%
same,Organoid Behavior (%) Stable,"BT-474 organoids; BT-474 organoids, 10 μM, 24 h",60.3%
same,Organoid Behavior (%) Gained Mass,"BT-474 organoids; BT-474 organoids, 10 μM, 24 h",9.5%
same,Organoid Behavior (%) Lost Mass,"BT-474 organoids; BT-474 organoids, 10 μM, 24 h",30.2%
same,Organoid Behavior (%) Stable,"BT-474 organoids; BT-474 organoids, 10 μM, 48 h",47.2%
same,Organoid Behavior (%) Gained Mass,"BT-474 organoids; BT-474 organoids, 10 μM, 48 h",15.1%
same,Organoid Behavior (%) Lost Mass,"BT-474 organoids; BT-474 organoids, 10 μM, 48 h",37.7%
same,Organoid Behavior (%) Lost Mass,"BT-474 organoids; BT-474 organoids, 50 μM, 12 h",18.5%
same,Organoid Behavior (%) Stable,"BT-474 organoids; BT-474 organoids, 50 μM, 24 h",55.6%
same,Organoid Behavior (%) Gained Mass,"BT-474 organoids; BT-474 organoids, 50 μM, 24 h",9.7%
same,Organoid Behavior (%) Lost Mass,"BT-474 organoids; BT-474 organoids, 50 μM, 24 h",34.7%
same,Organoid Behavior (%) Gained Mass,"BT-474 organoids; BT-474 organoids, 50 μM, 48 h",3.8%
same,Organoid Behavior (%) Lost Mass,"BT-474 organoids; BT-474 organoids, 50 μM, 48 h",84.6%
same,lowest concentration at which organoids were affected (average mass),"BT-474 organoids; BT-474 organoids, 48 h",1 µM
same,"Mean mass of MCF-7 organoids, Mean mass ± SD","MCF-7 organoids; 0.1 μM, 6 hours of treatment",2.00 ± 1.43 ng
same,"Mean mass of MCF-7 organoids, Mean mass ± SD","MCF-7 organoids; 0.1 μM, 48 hours of treatment",2.76 ± 2.35 ng
same,"Mean mass of MCF-7 organoids, Mean mass ± SD","MCF-7 organoids; 1 μM, 6 hours of treatment",2.20 ± 1.33 ng
same,"Mean mass of MCF-7 organoids, Mean mass ± SD","MCF-7 organoids; 1 μM, 48 hours of treatment",2.71 ± 2.09 ng
same,"Mean mass of MCF-7 organoids, Mean mass ± SD","MCF-7 organoids; 10 μM, 6 hours of treatment",2.30 ± 1.48 ng
same,"Mean mass of MCF-7 organoids, Mean mass ± SD","MCF-7 organoids; 10 μM, 48 hours of treatment",2.46 ± 1.90 ng
same,"Mean mass of MCF-7 organoids, Mean mass ± SD","MCF-7 organoids; 50 μM, 6 hours of treatment",1.71 ± 0.84 ng
same,"Mean mass of MCF-7 organoids, Mean mass ± SD","MCF-7 organoids; 50 μM, 48 hours of treatment",1.32 ± 1.03 ng
same,"Mean mass of MCF-7 organoids, Mean mass ± SD","MCF-7 organoids; 50 μM, 48 hours of treatment, listed as lapatinib",1.32 ± 1.06 ng
same,Organoid Behavior (%) Stable,"MCF-7 organoids; 0.1 μM, 12 h",73.5%
same,Organoid Behavior (%) Gained Mass,"MCF-7 organoids; 0.1 μM, 12 h",17.6%
same,Organoid Behavior (%) Lost Mass,"MCF-7 organoids; 0.1 μM, 12 h",8.8%
same,Organoid Behavior (%) Stable,"MCF-7 organoids; 0.1 μM, 24 h",56.3%
same,Organoid Behavior (%) Gained Mass,"MCF-7 organoids; 0.1 μM, 24 h",28.1%
same,Organoid Behavior (%) Lost Mass,"MCF-7 organoids; 0.1 μM, 24 h",15.6%
same,Organoid Behavior (%) Stable,"MCF-7 organoids; 0.1 μM, 48 h",34.4%
same,Organoid Behavior (%) Gained Mass,"MCF-7 organoids; 0.1 μM, 48 h",46.9%
same,Organoid Behavior (%) Lost Mass,"MCF-7 organoids; 0.1 μM, 48 h",18.8%
same,Organoid Behavior (%) Stable,"MCF-7 organoids; 1 μM, 12 h",88.2%
same,Organoid Behavior (%) Gained Mass,"MCF-7 organoids; 1 μM, 12 h",8.8%
same,Organoid Behavior (%) Lost Mass,"MCF-7 organoids; 1 μM, 12 h",2.9%
same,Organoid Behavior (%) Stable,"MCF-7 organoids; 1 μM, 24 h",45.2%
same,Organoid Behavior (%) Gained Mass,"MCF-7 organoids; 1 μM, 24 h",45.2%
same,Organoid Behavior (%) Lost Mass,"MCF-7 organoids; 1 μM, 24 h",9.7%
same,Organoid Behavior (%) Stable,"MCF-7 organoids; 1 μM, 48 h",26.3%
same,Organoid Behavior (%) Gained Mass,"MCF-7 organoids; 1 μM, 48 h",55.3%
same,Organoid Behavior (%) Lost Mass,"MCF-7 organoids; 1 μM, 48 h",18.4%
same,Organoid Behavior (%) Stable,"MCF-7 organoids; 10 μM, 12 h",84.1%
same,Organoid Behavior (%) Gained Mass,"MCF-7 organoids; 10 μM, 12 h",6.8%
same,Organoid Behavior (%) Lost Mass,"MCF-7 organoids; 10 μM, 12 h",9.1%
same,Organoid Behavior (%) Stable,"MCF-7 organoids; 10 μM, 24 h",56.5%
same,Organoid Behavior (%) Gained Mass,"MCF-7 organoids; 10 μM, 24 h",26.1%
same,Organoid Behavior (%) Lost Mass,"MCF-7 organoids; 10 μM, 24 h",17.4%
same,Organoid Behavior (%) Stable,"MCF-7 organoids; 10 μM, 48 h",32.4%
same,Organoid Behavior (%) Gained Mass,"MCF-7 organoids; 10 μM, 48 h",32.4%
same,Organoid Behavior (%) Stable,"MCF-7 organoids; 50 μM, 12 h",58.6%
same,Organoid Behavior (%) Gained Mass,"MCF-7 organoids; 50 μM, 12 h",6.9%
same,Organoid Behavior (%) Stable,"MCF-7 organoids; 50 μM, 24 h",39.3%
same,Organoid Behavior (%) Gained Mass,"MCF-7 organoids; 50 μM, 24 h",14.3%
same,Organoid Behavior (%) Lost Mass,"MCF-7 organoids; 50 μM, 24 h",46.4%
same,Organoid Behavior (%) Stable,"MCF-7 organoids; 50 μM, 48 h",43.5%
same,Organoid Behavior (%) Gained Mass,"MCF-7 organoids; 50 μM, 48 h",4.3%
same,Organoid Behavior (%) Lost Mass,"MCF-7 organoids; 50 μM, 48 h",52.2%
same,maximum plasma concentration reported,[1],4.2 µM
